Experimental data from patent US20100204143A1, “GAMMA 1 MSH ALONE OR IN COMBINATION WITH PENTAGASTRIN AS A THERAPEUTIC AGENT” (priority 2007, published 2010).
No end group written: not given here.

What was measured:
[1] = test system: hepatitis B virus (HBV) ayw strain; test: HBV experimental assay system (HepG2-2.2.15, TaqMan PCR of HBV DNA); format: cell-based; settings: 10 micrograms per ml; six days; as compared to the virus control infection
[2] = test system: TNF-a spleen cells; test: Th1/Th2 cytokine profiling assay: TNF-a; format: cell-based, Balb/c mice; settings: 10 micrograms per ml; Ovalbumin restimulation; 72 hours
From the text: (§1) The Balb/c mice (originated in 1923, it is a popular strain and is used in many different research disciplines. Also classified as an inbred from the production of 20 or more successive brother-sister matings, the Balb/c mouse is albino and small in size) were immunized on Days 1, 15, and 29 with Ovalbumin (Ovalbumin is the main protein found in egg white, commonly used to stimulate an immunological reaction in test animals) in PBS (5 micrograms/injection). On day 50, spleens of the mice were harvested (3 weeks after last boost with Ovalbumin). […] Thereafter, additional Ovalbumin was added to the cells at 10 micrograms/ml for in vitro restimulation of the cells. 72 hours later, cell supernatants were harvested and assayed using the Becton Dickinson Mouse Th1/Th2 Cytokine CBA Kit. This kit can be used to measure Interleukin-2 (IL-2), Interleukin-4 (IL-4), Interleukin-5 (IL-5), Interferon-γ (IFN-γ), and Tumor Necrosis Factor-α (TNF-α) protein levels in a single sample.

[3] = test system: IFNγ spleen cells; test: Th1/Th2 cytokine profiling assay: IFNγ; format: cell-based, Balb/c mice; settings: 10 micrograms per ml; Ovalbumin restimulation; 72 hours
From the text: as §1

[4] = test system: IL-2 spleen cells; test: Th1/Th2 cytokine profiling assay: IL-2; format: cell-based, Balb/c mice; settings: 10 micrograms per ml; Ovalbumin restimulation; 72 hours
From the text: as §1

[5] = test system: IL-4 spleen cells; test: Th1/Th2 cytokine profiling assay: IL-4; format: cell-based, Balb/c mice; settings: 10 micrograms per ml; Ovalbumin restimulation; 72 hours
From the text: as §1

[6] = test system: IL-5 spleen cells; test: Th1/Th2 cytokine profiling assay: IL-5; format: cell-based, Balb/c mice; settings: 10 micrograms per ml; Ovalbumin restimulation; 72 hours
From the text: The Balb/c mice (originated in 1923, it is a popular strain and is used in many different research disciplines. Also classified as an inbred from the production of 20 or more successive brother-sister matings, the Balb/c mouse is albino and small in size) were immunized on Days 1, 15, and 29 with Ovalbumin (Ovalbumin is the main protein found in egg white, commonly used to stimulate an immunological reaction in test animals) in PBS (5 micrograms/injection). On day 50, spleens of the mice were harvested (3 weeks after last boost with Ovalbumin). […] Thereafter, additional Ovalbumin was added to the cells at 10 micrograms/ml for in vitro restimulation of the cells. 72 hours later, cell supernatants were harvested and assayed using the Becton Dickinson Mouse Th1/Th2 Cytokine CBA Kit.

[7] = test system: Primary Human endothelial cells (HUVEC); test: Endothelial cell migration assay; format: cell-based; settings: 10 micrograms per ml, 22 hours
[8] = test system: cyclic AMP generation in human peripheral blood mononuclear cells (PBMC); test: cAMP induction assay; format: cell-based; settings: single peptides, 10 min at 37° C.
Procedure: The cAMP kit was used as an immunoassay for the quantitative determination of cyclic AMP generation in human peripheral blood mononuclear cells (PBMC). PBMC were placed in 96-well microtitier plates (50 microliters of cells at 4×10^6/ml) and 50 microliters of medium alone (background control), forskolin (cAMP positive control; 50 micrograms per ml), or test peptides were added. Plates were mixed and incubated for 10 min at 37° C. and the cells were lysed by the addition of 50 microliters of 3% perchloric acid. NaOH was added to neutralize the samples. Plates were centrifuged for 15 min at 2500 rpm and the supernatants removed. The supernatants (diluted 2-fold in assay buffer) were then assayed for the levels of cAMP by ELISA.

Tyr-Val-Met-Gly-His-Phe-Arg-Trp-Asp-Arg-Phe-NH2 (YVMGHFRWDRF-NH2) [peptide 1]
inhibition of HBV replication [1]: 17.4% | TNF-a spleen cells; TH1 response (% of control) [2]: 85.7 % of control | IFNγ spleen cells; TH1 response (% of control) [3]: 97.3 % of control | IL-2 spleen cells (% of control) [4]: 101.6 % of control | IL-4 spleen cells; TH2 response (% of control) [5]: 0.0 % of control | IL-5 spleen cells; TH2 response (% of control) [6]: 67.0 % of control | induction of the migration of human endothelial cells [7]: 12% | induction of cAMP formation in human peripheral blood cells [8]: 45.4%
